Test: Study 2 blood chemistry
Type: in vivo, human
Conditions: for Aspartate Aminotransferase / Gamma-glutamyl: in U/L (unit assumed); for A:G Ratio % Change / Alanine Aminotransferase % Change / Albumin % Change / Alkaline Phosphatase % Change / Aspartate Aminotransferase % Change / Blood Urea Nitrogen % Change / CO2 % Change / Chloride % Change / Cholesterol Ratio % Change / Creatinine % Change / Direct Bilirubin % Change / Gamma-glutamyl % Change / Globulin % Change / Glucose % Change / HDL % Change / Iron % Change / Iron Binding Capacity % Change / Iron Saturation % Change / LDL % Change / Lactate Dehydrogenase % Change / Phosphorus % Change / Potassium % Change / Protein % Change / Sodium % Change / Total Bilirubin % Change / Total Cholesterol % Change / Triglycerides % Change / UIBC % Change / Uric Acid % Change: Before to After
Experimental: Study 2 design. Study 2 was conducted similar to study 1 with the following modifications. In study 2, plasma levels of HMB were measured for 1440 min (24 h) and total urine collection was also performed for measurement of urinary HMB excretion during this period. After the 180 min blood sample, the subjects were allowed to leave the laboratory and were instructed to return to the laboratory for additional blood samples at 360, 720, and 1440 min after the ingestion of the supplement. As in study 1, each subject took each of the treatments with at least a one week washout period between treatments. Samples were again stored frozen at −70° C. for analysis of plasma and urinary HMB concentrations. Pre-ingestion, 180 min and 1440 min blood samples were again assayed for the same measurements already for study 1. Subjects were provided with a standardized lunch after the 180 min blood sampling and instructed to eat this at approximately 240 min post ingestion. Following the 720 min blood sample, subjects were instructed to eat a normal evening meal before 10 pm. Subjects reported back to the laboratory the following morning for the fasted 1440 min blood sample. A urine collection container was provided and subjects collected all urine produced during the experimental 24 h experimental period. The urine was stored refrigerated when not being collected. Urine volumes were measured and samples of the total urine collection were taken and stored frozen at −70° C. until analyzed for HMB.
The data were analyzed using a crossover design with Proc GLM in SAS. (45) For the timed sampling of plasma HMB a repeated measures polynomial model was used. The model included subject, order, and treatment main effects and time by treatment interaction where appropriate. For other parameters Proc GLM was also used with subject, order, and treatment main effects and the p values are reported for the treatment main effect. Statistical significance was determined for p<0.05 and a trend was determined for 0.05<p<0.10.

SMILES: CC(C)(O)CC(=O)O [HMB-Acid Gel Sublingual, 3-hydroxy-3-methylbutyric acid]
- A:G Ratio (After (24 h)): 1.8 ± 0.1
- Alanine Aminotransferase (After (24 h)): 16.6 ± 1.8 IU/L
- Albumin (After (24 h)): 4.2 ± 0.1 g/dL
- Alkaline Phosphatase (After (24 h)): 62.8 ± 6.7 IU/L
- Blood Urea Nitrogen (After (24 h)): 15.4 ± 1.1 mg/dL
- CO2 (After (24 h)): 27.9 ± 0.4 mEq/L
- Chloride (After (24 h)): 104.3 ± 0.9 mEq/L
- Cholesterol Ratio (After (24 h)): 3.2 ± 0.2
- Creatinine (After (24 h)): 1.0 ± 0.1 mg/dL
- Direct Bilirubin (After (24 h)): 0.1 ± 0.04 mg/dL
- Globulin (After (24 h)): 2.4 ± 0.1 g/dL
- Glucose (After (24 h)): 80.8 ± 2.1 mg/dL
- HDL (After (24 h)): 51.3 ± 2.8 mg/dL
- Iron (After (24 h)): 65.0 ± 12.1 µg/dL
- Iron Binding Capacity (After (24 h)): 385.0 ± 29.8 µg/dL
- Iron Saturation (After (24 h)): 20.1 ± 4.2%
- LDL (After (24 h)): 90.4 ± 6.8 mg/dL
- Lactate Dehydrogenase (After (24 h)): 151.8 ± 5.2 IU/L
- Phosphorus (After (24 h)): 4.6 ± 0.2 mg/dL
- Potassium (After (24 h)): 4.9 ± 0.1 mEq/L
- Protein (After (24 h)): 6.6 ± 0.2 g/dL
- Sodium (After (24 h)): 142.1 ± 1.1 mEq/L
- Total Bilirubin (After (24 h)): 0.5 ± 0.1 mg/dL
- Total Cholesterol (After (24 h)): 163.3 ± 9.3 mg/dL
- Triglycerides (After (24 h)): 107.6 ± 16.6 mg/dL
- UIBC (After (24 h)): 312.0 ± 35.9 µg/dL
- Uric Acid (After (24 h)): 4.7 ± 0.3 mg/dL
- Aspartate Aminotransferase (After (24 h)): 24.8 ± 2.3
- Gamma-glutamyl (After (24 h)): 13.9 ± 1.0
- A:G Ratio (Before): 1.8 ± 0.1
- Alanine Aminotransferase (Before): 15.3 ± 1.5 IU/L
- Albumin (Before): 4.1 ± 0.1 g/dL
- Alkaline Phosphatase (Before): 66.5 ± 7.3 IU/L
- Blood Urea Nitrogen (Before): 15.3 ± 1.7 mg/dL
- CO2 (Before): 25.3 ± 0.8 mEq/L
- Chloride (Before): 102.1 ± 0.5 mEq/L
- Cholesterol Ratio (Before): 3.1 ± 0.2
- Creatinine (Before): 1.0 ± 0.1 mg/dL
- Direct Bilirubin (Before): 0.1 ± 0.03 mg/dL
- Globulin (Before): 2.3 ± 0.1 g/dL
- Glucose (Before): 73.0 ± 1.8 mg/dL
- HDL (Before): 52.3 ± 3.1 mg/dL
- Iron (Before): 107.6 ± 13.7 µg/dL
- Iron Binding Capacity (Before): 371.9 ± 31.4 µg/dL
- Iron Saturation (Before): 30.1 ± 5.1%
- LDL (Before): 91.3 ± 5.9 mg/dL
- Lactate Dehydrogenase (Before): 163.8 ± 11.9 IU/L
- Phosphorus (Before): 4.1 ± 0.1 mg/dL
- Potassium (Before): 4.0 ± 0.1 mEq/L
- Protein (Before): 6.5 ± 0.2 g/dL
- Sodium (Before): 138.5 ± 0.6 mEq/L
- Total Bilirubin (Before): 0.6 ± 0.1 mg/dL
- Total Cholesterol (Before): 161.6 ± 9.4 mg/dL
- Triglycerides (Before): 93.1 ± 10.6 mg/dL
- UIBC (Before): 264.3 ± 33.3 µg/dL
- Uric Acid (Before): 4.7 ± 0.3 mg/dL
- A:G Ratio % Change: −1.4%
- Alanine Aminotransferase % Change: 9.0%
- Albumin % Change: 2.7%
- Alkaline Phosphatase % Change: −5.6%
- Aspartate Aminotransferase % Change: 3.7%
- Blood Urea Nitrogen % Change: 0.8%
- CO2 % Change: 10.4%
- Chloride % Change: 2.1%
- Cholesterol Ratio % Change: 3.6%
- Creatinine % Change: 7.9%
- Direct Bilirubin % Change: −12.8%
- Gamma-glutamyl % Change: 0.0%
- Globulin % Change: 3.2%
- Glucose % Change: 10.6%
- HDL % Change: −1.9%
- Iron % Change: −39.6%
- Iron Binding Capacity % Change: 3.5%
- Iron Saturation % Change: −33.2%
- LDL % Change: −1.0%
- Lactate Dehydrogenase % Change: −7.3%
- Phosphorus % Change: 11.5%
- Potassium % Change: 21.7%
- Protein % Change: 2.9%
- Sodium % Change: 2.6%
- Total Bilirubin % Change: −13.3%
- Total Cholesterol % Change: 1.0%
- Triglycerides % Change: 15.6%
- UIBC % Change: 18.1%
- Uric Acid % Change: 0.8%
- Aspartate Aminotransferase (Before): 23.9 ± 3.2
- Gamma-glutamyl (Before): 13.9±1.2

SMILES: CC(C)(O)CC(=O)[O-].CC(C)(O)CC(=O)[O-].[Ca+2] [CaHMB, calcium β-hydroxy-β-methylbutryate, reference compound]
- A:G Ratio (After (24 h)): 1.8 ± 0.1
- Alanine Aminotransferase (After (24 h)): 14.9 ± 2.2 IU/L
- Albumin (After (24 h)): 4.2 ± 0.1 g/dL
- Alkaline Phosphatase (After (24 h)): 66.8 ± 6.9 IU/L
- Blood Urea Nitrogen (After (24 h)): 13.4 ± 1.0 mg/dL
- CO2 (After (24 h)): 27.3 ± 0.6 mEq/L
- Chloride (After (24 h)): 103.0 ± 0.5 mEq/L
- Cholesterol Ratio (After (24 h)): 3.1 ± 0.2
- Creatinine (After (24 h)): 1.0 ± 0.1 mg/dL
- Direct Bilirubin (After (24 h)): 0.1 ± 0.04 mg/dL
- Globulin (After (24 h)): 2.4 ± 0.1 g/dL
- Glucose (After (24 h)): 80.3 ± 2.4 mg/dL
- HDL (After (24 h)): 54.0 ± 3.5 mg/dL
- Iron (After (24 h)): 59.9 ± 12.2 µg/dL
- Iron Binding Capacity (After (24 h)): 377.5 ± 30.3 µg/dL
- Iron Saturation (After (24 h)): 17.5 ± 4.2%
- LDL (After (24 h)): 88.6 ± 5.9 mg/dL
- Lactate Dehydrogenase (After (24 h)): 142.4 ± 10.5 IU/L
- Phosphorus (After (24 h)): 4.4 ± 0.1 mg/dL
- Potassium (After (24 h)): 4.7 ± 0.1 mEq/L
- Protein (After (24 h)): 6.5 ± 0.2 g/dL
- Sodium (After (24 h)): 141.4 ± 0.5 mEq/L
- Total Bilirubin (After (24 h)): 0.5 ± 0.2 mg/dL
- Total Cholesterol (After (24 h)): 162.9 ± 7.1 mg/dL
- Triglycerides (After (24 h)): 106.9 ± 17.6 mg/dL
- UIBC (After (24 h)): 317.6 ± 38.3 µg/dL
- Uric Acid (After (24 h)): 4.2 ± 0.5 mg/dL
- Aspartate Aminotransferase (After (24 h)): 20.0 ± 1.1
- Gamma-glutamyl (After (24 h)): 14.3 ± 1.4
- A:G Ratio (Before): 1.9 ± 0.1
- Alanine Aminotransferase (Before): 15.4 ± 1.8 IU/L
- Albumin (Before): 4.1 ± 0.1 g/dL
- Alkaline Phosphatase (Before): 65.5 ± 7.3 IU/L
- Blood Urea Nitrogen (Before): 14.8 ± 1.4 mg/dL
- CO2 (Before): 24.9 ± 0.6 mEq/L
- Chloride (Before): 102.4 ± 0.5 mEq/L
- Cholesterol Ratio (Before): 3.1 ± 0.2
- Creatinine (Before): 1.0 ± 0.1 mg/dL
- Direct Bilirubin (Before): 0.2 ± 0.1 mg/dL
- Globulin (Before): 2.2 ± 0.1 g/dL
- Glucose (Before): 70.8 ± 0.8 mg/dL
- HDL (Before): 52.3 ± 2.7 mg/dL
- Iron (Before): 99.0 ± 20.0 µg/dL
- Iron Binding Capacity (Before): 371.8 ± 28.6 µg/dL
- Iron Saturation (Before): 28.4 ± 5.8%
- LDL (Before): 88.6 ± 7.2 mg/dL
- Lactate Dehydrogenase (Before): 161.8 ± 12.6 IU/L
- Phosphorus (Before): 4.0 ± 0.1 mg/dL
- Potassium (Before): 4.1 ± 0.1 mEq/L
- Protein (Before): 6.4 ± 0.2 g/dL
- Sodium (Before): 139.5 ± 0.8 mEq/L
- Total Bilirubin (Before): 0.6 ± 0.1 mg/dL
- Total Cholesterol (Before): 160.4 ± 8.0 mg/dL
- Triglycerides (Before): 97.4 ± 12.5 mg/dL
- UIBC (Before): 272.8 ± 39.5 µg/dL
- Uric Acid (Before): 4.8 ± 0.3 mg/dL
- A:G Ratio % Change: −3.4%
- Alanine Aminotransferase % Change: −3.3%
- Albumin % Change: 0.6%
- Alkaline Phosphatase % Change: 1.9%
- Aspartate Aminotransferase % Change: −11.6%
- Blood Urea Nitrogen % Change: −9.3%
- CO2 % Change: 9.5%
- Chloride % Change: 0.6%
- Cholesterol Ratio % Change: −0.8%
- Creatinine % Change: −1.5%
- Direct Bilirubin % Change: −37.4%
- Gamma-glutamyl % Change: 1.8%
- Globulin % Change: 6.7%
- Glucose % Change: 13.4%
- HDL % Change: 3.3%
- Iron % Change: −39.5%
- Iron Binding Capacity % Change: 1.5%
- Iron Saturation % Change: −38.3%
- LDL % Change: 0.0%
- Lactate Dehydrogenase % Change: −12.0%
- Phosphorus % Change: 10.6%
- Potassium % Change: 14.8%
- Protein % Change: 2.8%
- Sodium % Change: 1.3%
- Total Bilirubin % Change: −17.8%
- Total Cholesterol % Change: 1.6%
- Triglycerides % Change: 9.8%
- UIBC % Change: 16.5%
- Uric Acid % Change: −12.0%
- Aspartate Aminotransferase (Before): 22.6 ± 1.4
- Gamma-glutamyl (Before): 14.0 ± 1.9

Reference: patent publication US20210113501A1, “METHOD OF ADMINISTERING BETA-HYDROXY-BETA-METHYLBUTYRATE (HMB)” (Metabolic Technologies, Inc., priority 2009, published 2021)
